pIC50: −log10 of the molar value.
Experiments:
[1] = molecular target: full-length MALT1 protein (Strep-MALT1(1-824)-His) (Homo sapiens (Human), UniProt Q9UDY8); assay: MALT1 Biochemical Protease Assay (Ac-LRSR-AMC substrate); details: 10 nM FL MALT1, 200 μM Ac-LRSR-AMC, 4 h at RT; read-out: MALT1_Biochemical activity (Ac-LRSR-amc) IC50
Procedure, shortened: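 Fluorescence from AMC release off the quenched LRSR substrate was read after a 4 h reaction at RT. Values were normalised to no-enzyme and uninhibited controls and fitted for IC50 and Hill coefficient.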

[2] = test system: IL6 secretion by TMD8 ABC-DLBCL cells; assay: Human IL6 Mesoscale assay (TMD-8); assay type: cell-based; details: Homo sapiens, TMD8; TMD-8 cells, 24 h
Procedure, shortened: (§1)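 100,000 cells/well treated with compound in 9 twofold steps from 15 μM to 58.6 nM (0.3% DMSO) for 24 h at 37° C; supernatant cytokine measured by MSD electrochemiluminescence sandwich immunoassay. DMSO wells set maximum signal, BTK inhibitor RN486 (30 nM to 131 pM) set maximum inhibition.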

OCI-Ly3 cells = assay: 4-day proliferation assay, OCI-Ly3; assay type: cell-based, human; details: Homo sapiens, 96 h, 4 days incubation, CellTiterGLO, read-out: Anti-proliferation: OCI-LY-3 IC50
Description: (§2) To assess anti-proliferative effects, MALT1 inhibitor test compounds were tested in 4-day proliferation assays using three different DLBCL cell lines.
(§3) Cells should be kept between 0.5-2.5 million cells per mL during culturing and cells should be supplemented every 2-3 days with fresh 50 μM beta-mercaptoenthanol. No beta-mercaptoethanol is used during the proliferation assay. OCI-Ly7 cells were propagated in IMDM (ThermoFisher) supplemented with 10% fetal bovine serum (HyClone), 2 mM L-glutamine (Sigma Aldrich) and 50 μg/mL Gentamycin. Cell passage numbers should not exceed 30 (for OCI-Ly3 cells with passage number lower than 10 were used).
(§4) 10,000 TMD8, 10,000 OCI-Ly3 or 2,000 OCI-Ly7 cells were seeded in 100 μL media per well and incubated for 4 days at 37° C. and 5% CO2. Cell plating numbers were chosen based on growth curves to ensure linear cell growth. After 4 days of incubation 50 μL CellTiterGLO reagent (Promega) were added to each well and luminescence was measured on the Envision after 10 min of incubation at room temperature.
(§5) LC=median of the low control values
(§6) An estimate of the slope of the plot in terms of the Hill coefficient was also obtained.

TMD8 cells = assay: 4-day proliferation assay, TMD8; assay type: cell-based; details: Homo sapiens, 96 h, 4 days incubation, CellTiterGLO, read-out: Anti-proliferation: TMD-8 IC50
Description: as §2, §3, §4, §5, §6

[3] = test system: IL10 secretion by TMD8 ABC-DLBCL cells; assay: Human IL10 Mesoscale assay (TMD-8); assay type: cell-based; details: Homo sapiens, TMD8; TMD-8 cells, 24 h
Procedure, shortened: as §1

[4] = test system: IL6 secretion by OCI-LY3 ABC-DLBCL cells; assay: Human IL6 Mesoscale assay (OCI-LY3); assay type: cell-based; details: Homo sapiens, 24 h
Procedure, shortened: as §1

[5] = test system: IL10 secretion by OCI-LY3 ABC-DLBCL cells; assay: Human IL10 Mesoscale assay (OCI-LY3); assay type: cell-based; details: Homo sapiens, 24 h
Procedure, shortened: as §1

Chain of full-length MALT1 protein (Strep-MALT1(1-824)-His) (Q9UDY8 whole entry): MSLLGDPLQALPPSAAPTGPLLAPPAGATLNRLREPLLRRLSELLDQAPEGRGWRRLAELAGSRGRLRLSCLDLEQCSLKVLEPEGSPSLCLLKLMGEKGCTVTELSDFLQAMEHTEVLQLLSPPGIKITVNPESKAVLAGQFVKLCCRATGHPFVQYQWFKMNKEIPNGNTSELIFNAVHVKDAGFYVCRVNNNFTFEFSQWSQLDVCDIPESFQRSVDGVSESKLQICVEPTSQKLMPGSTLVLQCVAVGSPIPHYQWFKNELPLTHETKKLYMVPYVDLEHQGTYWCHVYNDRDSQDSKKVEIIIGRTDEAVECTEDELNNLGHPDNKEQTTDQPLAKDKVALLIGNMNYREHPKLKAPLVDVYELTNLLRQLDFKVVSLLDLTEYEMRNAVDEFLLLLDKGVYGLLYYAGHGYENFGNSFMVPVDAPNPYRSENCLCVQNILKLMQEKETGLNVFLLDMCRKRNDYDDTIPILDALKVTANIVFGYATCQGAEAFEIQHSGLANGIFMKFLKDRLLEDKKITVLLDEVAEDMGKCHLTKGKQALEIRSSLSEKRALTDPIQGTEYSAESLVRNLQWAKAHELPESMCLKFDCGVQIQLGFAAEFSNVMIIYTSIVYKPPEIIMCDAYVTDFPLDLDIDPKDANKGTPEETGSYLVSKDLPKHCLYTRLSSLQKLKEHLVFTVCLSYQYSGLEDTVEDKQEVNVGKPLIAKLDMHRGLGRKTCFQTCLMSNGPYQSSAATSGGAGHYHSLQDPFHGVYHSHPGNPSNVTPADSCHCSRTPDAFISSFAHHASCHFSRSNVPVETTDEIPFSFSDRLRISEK

## CC(C)Cc1c(C(=O)Nc2cnc(-n3nccn3)c(Cl)c2)cnn1-c1cccc2ncccc12 [Cpd 16, N-(5-Chloro-6-(2H-1,2,3-triazol-2-yl)pyridin-3-yl)-5-isobutyl-1-(quinolin-5-yl)-1H-pyrazole-4-carboxamide]
[1]
  pIC50: 6.14
[2]
  pIC50: 5.83
OCI-Ly3 cells
  pIC50: 6.24
TMD8 cells
  pIC50: 4.97

## Cn1ccc(-c2ncc(NC(=O)c3cnn(-c4cccc5ccncc45)c3C(F)(F)F)cc2Cl)n1 [Cpd 21, N-(5-Chloro-6-(1-methyl-1H-pyrazol-3-yl)pyridin-3-yl)-1-(isoquinolin-8-yl)-5-(trifluoromethyl)-1H-pyrazole-4-carboxamide]
[1]
  pIC50: 5.84
[2]
  pIC50: < 4.82
OCI-Ly3 cells
  pIC50: ~4.89
TMD8 cells
  pIC50: < 4.70

## Cc1ccc2ncccc2c1-n1ncc(C(=O)Nc2cnc(-n3nccn3)c(Cl)c2)c1C(F)(F)F [Cpd 27, N-(5-Chloro-6-(2H-1,2,3-triazol-2-yl)pyridin-3-yl)-1-(6-methylquinolin-5-yl)-5-(trifluoromethyl)-1H-pyrazole-4-carboxamide]
[1]
  pIC50: 7.46
[2]
  pIC50: 6.98
OCI-Ly3 cells
  pIC50: 5.71
TMD8 cells
  pIC50: 4.86

## Cc1cncc2c(-n3ncc(C(=O)Nc4cnc(-n5nccn5)c(Cl)c4)c3C(F)(F)F)cccc12 [Cpd 33, N-(5-Chloro-6-(2H-1,2,3-triazol-2-yl)pyridin-3-yl)-1-(4-methylisoquinolin-8-yl)-5-(trifluoromethyl)-1H-pyrazole-4-carboxamide]
[1]
  pIC50: 5.96
[2]
  pIC50: 5.13
[3]
  pIC50: 5.98
OCI-Ly3 cells
  pIC50: < 4.70
TMD8 cells
  pIC50: < 4.70

## O=C(Nc1cnc(-n2nccn2)c(Cl)c1)c1cnn(-c2nccc3ccccc23)c1C(F)F [Cpd 56, N-(5-Chloro-6-(2H-1,2,3-triazol-2-yl)pyridin-3-yl)-5-(difluoromethyl)-1-(isoquinolin-1-yl)-1H-pyrazole-4-carboxamide]
[1]
  pIC50: 6.59
[2]
  pIC50: 6.31
[3]
  pIC50: 6.56
OCI-Ly3 cells
  pIC50: 6.27
TMD8 cells
  pIC50: < 4.70

## O=C(Nc1cnc(-n2nccn2)c(Cl)c1)c1cnn(-c2nccc3ccccc23)c1C(F)(F)F [Cpd 57, N-(5-chloro-6-(2H-1,2,3-triazol-2-yl)pyridin-3-yl)-1-(isoquinolin-1-yl)-5-(trifluoromethyl)-1H-pyrazole-4-carboxamide]
[1]
  pIC50: 7.37
[2]
  pIC50: 7.09
[3]
  pIC50: 7.07
OCI-Ly3 cells
  pIC50: 6.66
TMD8 cells
  pIC50: ~5.05

## Nc1nccc(-c2ccc(NC(=O)c3cnn(-c4cncc5ccccc45)c3C(F)(F)F)cc2Cl)n1 [Cpd 58, N-(4-(2-Aminopyrimidin-4-yl)-3-chlorophenyl)-1-(isoquinolin-4-yl)-5-(trifluoromethyl)-1H-pyrazole-4-carboxamide]
[1]
  pIC50: 6.85
[2]
  pIC50: 6.48
[3]
  pIC50: 6.54
OCI-Ly3 cells
  pIC50: 6.30
TMD8 cells
  pIC50: 5.35

## N#Cc1cc(NC(=O)c2cnn(-c3cncc4ccccc34)c2C(F)(F)F)ccc1-n1nccn1 [Cpd 59, N-(3-Cyano-4-(2H-1,2,3-triazol-2-yl)phenyl)-1-(isoquinolin-4-yl)-5-(trifluoromethyl)-1H-pyrazole-4-carboxamide]
[1]
  pIC50: 7.51
[2]
  pIC50: 7.17
[3]
  pIC50: 7.13
OCI-Ly3 cells
  pIC50: 6.85
TMD8 cells
  pIC50: 5.17

## N#Cc1cc(NC(=O)c2cnn(-c3ccnc4ccsc34)c2C(F)(F)F)cnc1-n1nccn1 [Cpd 128, N-(5-cyano-6-(2H-1,2,3-triazol-2-yl)pyridin-3-yl)-1-(thieno[3,2-b]pyridin-7-yl)-5-(trifluoromethyl)-1H-pyrazole-4-carboxamide]
[1]
  pIC50: 7.80
[2]
  pIC50: 7.02
[3]
  pIC50: 6.98
[4]
  pIC50: 7.57
[5]
  pIC50: 7.44
OCI-Ly3 cells
  pIC50: 6.73

## Cc1csc2c(-n3ncc(C(=O)Nc4cnc(-n5nccn5)c(C#N)c4)c3C(F)(F)F)ccnc12 [Cpd 310, N-(5-cyano-6-(2H-1,2,3-triazol-2-yl)pyridin-3-yl)-1-(3-methylthieno[3,2-b]pyridin-7-yl)-5-(trifluoromethyl)-1H-pyrazole-4-carboxamide]
[1]
  pIC50: 7.28
[4]
  pIC50: 6.19
[5]
  pIC50: 6.31
OCI-Ly3 cells
  pIC50: 5.90

— patent US10954214B2 (Janssen Pharmaceutica NV, priority 2016, dated 2021)
